Laboratory results taken from patent US20110201596A1, “Methods for Providing Oxidatively Stable Ophthalmic Compositions” (priority 2005, published 2011).
Counter-ions that a name gives are not always drawn.

Assay: Stability of ketotifen fumarate in borate buffered saline over autoclave cycles, analysed by HPLC
Type: physicochemical
Conditions: for % ketotifen: no PAA; for % ketotifen Unsparged: Example 3: buffer with poly(acrylic acid); for % ketotifen Nitrogen Sparged: Example 4: buffer with poly(acrylic acid); for ketotifen stability: after autoclaving
Procedure: A buffer solution was formed by dissolving 8.3 gm NaCl (from Sigma Aldrich), 9.1 gm boric acid (from Mallinckrodt) and 1 gm sodium borate (from Mallinckrodt) in 1 L deionized water (from Milli Q). […] Ketotifen fumarate (from Sigma Aldrich) was added to prepare a solution of approximately 80 ppm in the buffer solution. The ketotifen solution (3 mL) was placed in vials, autoclaved for the number of cycles shown in Table 1, below and analyzed as a function of autoclave cycle (3 replicate per autoclave cycle) using HPLC using an HP1100 and an Agilent Zorbax Eclipse XDB-C18 and Rapid Resolution HT 50×4.6 mm×1.8μ column and the following conditions:
Mobile Phase: • Eluent A: 17% acetonitrile in 0.025 M dihydrogen potassium phosphate buffer • 0.2% triethylamine, 0.13% o-phosphoric acid • Eluent B: 50% acetonitrile in 0.025 M dihydrogen potassium phosphate buffer • 0.2% triethylamine, 0.13% o-phosphoric acid
Example 1 was repeated, except that the buffer solution was sparged (with nitrogen) overnight (˜12 hrs) at about 370 standard cubic centimeter per minute (SCCM) and subsequently transferred to a nitrogen box (<0.5% oxygen). The ketotifen solution of about 90 ppm was prepared and placed in vials as described above, but in nitrogen box. The vials were autoclaved and analyzed as described in Example 1.
Examples 1 and 2 was repeated, except that 10 gm of poly(acrylic acid) (PAA, Mw, 225,000, from Polysciences, Inc., 20% in water) was added to the buffer solution. The vials were autoclaved and analyzed as described in Example 1.

Structure (SMILES): CN1CCC(=C2c3ccccc3CC(=O)c3sccc32)CC1 [ketotifen, Ketotifen fumarate]
- % ketotifen (Example 1: ~80 ppm in buffer pH 7.65, unsparged, autoclave cycle 0): 100%
- % ketotifen (Example 1: ~80 ppm in buffer pH 7.65, unsparged, autoclave cycle 1): 0%
- % ketotifen (Example 1: ~80 ppm in buffer pH 7.65, unsparged, autoclave cycle 2): 0%
- % ketotifen (Example 1: ~80 ppm in buffer pH 7.65, unsparged, autoclave cycle 3): 0%
- % ketotifen (Example 2: ~90 ppm, buffer nitrogen sparged ~12 hrs, nitrogen box, autoclave cycle 0): 100%
- % ketotifen (Example 2: ~90 ppm, buffer nitrogen sparged ~12 hrs, nitrogen box, autoclave cycle 1): 98%
- % ketotifen (Example 2: ~90 ppm, buffer nitrogen sparged ~12 hrs, nitrogen box, autoclave cycle 2): 98%
- % ketotifen (Example 2: ~90 ppm, buffer nitrogen sparged ~12 hrs, nitrogen box, autoclave cycle 3): 98%
- % ketotifen Unsparged (autoclave cycle 0): 100%
- % ketotifen Unsparged (autoclave cycle 1): 94%
- % ketotifen Unsparged (autoclave cycle 2): 81%
- % ketotifen Unsparged (autoclave cycle 3): 66%
- % ketotifen Nitrogen Sparged (autoclave cycle 0): 100%
- % ketotifen Nitrogen Sparged (autoclave cycle 1): 99%
- % ketotifen Nitrogen Sparged (autoclave cycle 2): 99%
- % ketotifen Nitrogen Sparged (autoclave cycle 3): 98%
- ketotifen stability (buffer sparged and solution kept under nitrogen (Table 2)): 98%
- ketotifen stability (unsparged buffer (Table 1)): 0%
